Reference: publication PMC12257073 (Cancer Research Communications, 2025)

Assay: Adverse events (treatment-related and all-cause) and dose-limiting toxicities, NCI CTCAE version 4.0
Conditions: all-cause adverse events
[1] = Group 1, Skin and subcutaneous tissue disorders

Method: The phase 1b portion of the study used a standard 3 + 3 dose-escalation design with a starting dose level 1 (DL1) of 37 mg oral daily TP-0903 (Supplementary Table S2) based on experience with 50 mg oral daily as a single agent in patients with solid tumors ([25]). Dose-limiting toxicities (DLT) were evaluated to establish the dose brought forward for an expansion cohort (phase 2). Seven patients were enrolled in the phase 1b study, which was completed in January 2021 with the decision to move forward with an expansion cohort of 37 mg oral daily. Across the phase 1b and phase 2 studies, 15 patients were enrolled and started on 37 mg TP-0903 oral daily on days 1 to 21 (group 1). […] One additional patient was enrolled at this time but was inadvertently started on 25 mg TP-0903 oral daily on days 1 to 21. […] In May 2021, an amendment was approved to allow enrollment of a new group 2 at 25mg oral daily on days 1 to 21 of TP-0903 (DL-1) in stage 2 of the phase 2 study.
Clinical response was assessed according to the modified 2017 European LeukemiaNet AML criteria ([26]). The primary endpoint was achievement of CR within six cycles of therapy. Secondary endpoints included toxicity, duration of response, OS, and the proportion of eligible patients who effectively transitioned to allogeneic stem cell transplantation. Exploratory endpoints included pharmacokinetics (PK), correlative genetic, and biochemical data; correlations between morphologic remission, spectral flow cytometry, and mutational remission; and duration of remission or survival. […] Adverse events (AE) were graded according to the NCI Common Terminology Criteria for Adverse Events version 4.0 ([27]).

CN1CCN(Cc2ccc(Nc3ncc(Cl)c(Nc4ccccc4S(=O)(=O)N(C)C)n3)cc2)CC1.O=C(O)C(O)C(O)C(=O)O.O=C(O)C(O)C(O)C(=O)O [TP-0903, 2-(5-chloro-2-(4-((4-methylpiperazin-1-yl)methyl)phenylamino)pyrimidin-4-yl)amino-N,N-dimethylbenzene-1-sulfonamide di-tartrate salt]
Atrial fibrillation with RVR, All (Group 1, Missing Categories): 0 (0) | Atrial fibrillation with RVR, Grade 1 2 (Group 1, Missing Categories): 0 (0) | Atrial fibrillation with RVR, Grade 3+ (Group 1, Missing Categories): 0 (0) | COPD exacerbation, All (Group 1, Missing Categories): 1 (6.7) | COPD exacerbation, Grade 1 2 (Group 1, Missing Categories): 1 (6.7) | COPD exacerbation, Grade 3+ (Group 1, Missing Categories): 0 (0) | Chest pain (non-cardiac), All (Group 1, Missing Categories): 0 (0) | Chest pain (non-cardiac), Grade 1 2 (Group 1, Missing Categories): 0 (0) | Chest pain (non-cardiac), Grade 3+ (Group 1, Missing Categories): 0 (0) | Death, NOS, All (Group 1, Missing Categories): 1 (6.7) | Death, NOS, Grade 1 2 (Group 1, Missing Categories): 0 (0) | Death, NOS, Grade 3+ (Group 1, Missing Categories): 1 (6.7) | Diarrhea (intermittent), All (Group 1, Missing Categories): 0 (0) | Diarrhea (intermittent), Grade 1 2 (Group 1, Missing Categories): 0 (0) | Diarrhea (intermittent), Grade 3+ (Group 1, Missing Categories): 0 (0) | Hand-Foot Syndrome, All (Group 1, Missing Categories): 1 (6.7) | Hand-Foot Syndrome, Grade 1 2 (Group 1, Missing Categories): 1 (6.7) | Hand-Foot Syndrome, Grade 3+ (Group 1, Missing Categories): 0 (0) | Hip Pain, All (Group 1, Missing Categories): 1 (6.7) | Hip Pain, Grade 1 2 (Group 1, Missing Categories): 1 (6.7) | Hip Pain, Grade 3+ (Group 1, Missing Categories): 0 (0) | Hypokalemia (intermittent), All (Group 1, Missing Categories): 0 (0) | Hypokalemia (intermittent), Grade 1 2 (Group 1, Missing Categories): 0 (0) | Hypokalemia (intermittent), Grade 3+ (Group 1, Missing Categories): 0 (0) | Hypotension (intermittent), All (Group 1, Missing Categories): 0 (0) | Hypotension (intermittent), Grade 1 2 (Group 1, Missing Categories): 0 (0) | Hypotension (intermittent), Grade 3+ (Group 1, Missing Categories): 0 (0) | INR - Increased, All (Group 1, Missing Categories): 1 (6.7) | INR - Increased, Grade 1 2 (Group 1, Missing Categories): 1 (6.7) | INR - Increased, Grade 3+ (Group 1, Missing Categories): 0 (0) | Inflammation (bilateral knee), All (Group 1, Missing Categories): 0 (0) | Inflammation (bilateral knee), Grade 1 2 (Group 1, Missing Categories): 0 (0) | Inflammation (bilateral knee), Grade 3+ (Group 1, Missing Categories): 0 (0) | Itching (intermittent), All (Group 1, Missing Categories): 0 (0) | Itching (intermittent), Grade 1 2 (Group 1, Missing Categories): 0 (0) | Itching (intermittent), Grade 3+ (Group 1, Missing Categories): 0 (0) | Microvascular ischemic disease, All (Group 1, Missing Categories): 0 (0) | Microvascular ischemic disease, Grade 1 2 (Group 1, Missing Categories): 0 (0) | Microvascular ischemic disease, Grade 3+ (Group 1, Missing Categories): 0 (0) | Pain (leg), All (Group 1, Missing Categories): 0 (0) | Pain (leg), Grade 1 2 (Group 1, Missing Categories): 0 (0) | Pain (leg), Grade 3+ (Group 1, Missing Categories): 0 (0) | Retinal Detachment, All (Group 1, Missing Categories): 1 (6.7) | Retinal Detachment, Grade 1 2 (Group 1, Missing Categories): 1 (6.7) | Retinal Detachment, Grade 3+ (Group 1, Missing Categories): 0 (0) | Steroid-induced hyperglycemia, All (Group 1, Missing Categories): 0 (0) | Steroid-induced hyperglycemia, Grade 1 2 (Group 1, Missing Categories): 0 (0) | Steroid-induced hyperglycemia, Grade 3+ (Group 1, Missing Categories): 0 (0) | Symptomatic anemia, All (Group 1, Missing Categories): 0 (0) | Symptomatic anemia, Grade 1 2 (Group 1, Missing Categories): 0 (0) | Symptomatic anemia, Grade 3+ (Group 1, Missing Categories): 0 (0) | lung fullness, All (Group 1, Missing Categories): 1 (6.7) | lung fullness, Grade 1 2 (Group 1, Missing Categories): 1 (6.7) | lung fullness, Grade 3+ (Group 1, Missing Categories): 0 (0) | neuropathy (BLE), All (Group 1, Missing Categories): 0 (0) | neuropathy (BLE), Grade 1 2 (Group 1, Missing Categories): 0 (0) | neuropathy (BLE), Grade 3+ (Group 1, Missing Categories): 0 (0) | pericarditis (intermittent), All (Group 1, Missing Categories): 0 (0) | pericarditis (intermittent), Grade 1 2 (Group 1, Missing Categories): 0 (0) | pericarditis (intermittent), Grade 3+ (Group 1, Missing Categories): 0 (0) | Dry skin, All [1]: 1 (6.7) | Dry skin, Grade 1 2 [1]: 1 (6.7) | Dry skin, Grade 3+ [1]: 0 (0) | Ecchymosis, All [1]: 1 (6.7) | Ecchymosis, Grade 1 2 [1]: 1 (6.7) | Ecchymosis, Grade 3+ [1]: 0 (0) | Erythema nodosum, All [1]: 0 (0) | Erythema nodosum, Grade 1 2 [1]: 0 (0) | Erythema nodosum, Grade 3+ [1]: 0 (0) | Erythema, All [1]: 1 (6.7) | Erythema, Grade 1 2 [1]: 1 (6.7) | Erythema, Grade 3+ [1]: 0 (0) | Hyperhidrosis, All [1]: 0 (0) | Hyperhidrosis, Grade 1 2 [1]: 0 (0) | Hyperhidrosis, Grade 3+ [1]: 0 (0) | Nail discolouration, All [1]: 1 (6.7) | Nail discolouration, Grade 1 2 [1]: 1 (6.7) | Nail discolouration, Grade 3+ [1]: 0 (0) | Petechiae, All [1]: 0 (0) | Petechiae, Grade 1 2 [1]: 0 (0) | Petechiae, Grade 3+ [1]: 0 (0) | Photosensitivity reaction, All [1]: 1 (6.7) | Photosensitivity reaction, Grade 1 2 [1]: 1 (6.7) | Photosensitivity reaction, Grade 3+ [1]: 0 (0) | Pruritus, All [1]: 1 (6.7) | Pruritus, Grade 1 2 [1]: 1 (6.7) | Pruritus, Grade 3+ [1]: 0 (0) | Rash papular, All [1]: 0 (0) | Rash papular, Grade 1 2 [1]: 0 (0) | Rash papular, Grade 3+ [1]: 0 (0) | Rash, All [1]: 1 (6.7) | Rash, Grade 1 2 [1]: 1 (6.7) | Rash, Grade 3+ [1]: 0 (0) | Scab, All [1]: 0 (0) | Scab, Grade 1 2 [1]: 0 (0) | Scab, Grade 3+ [1]: 0 (0) | Skin disorder, All [1]: 1 (6.7) | Skin disorder, Grade 1 2 [1]: 1 (6.7) | Skin disorder, Grade 3+ [1]: 0 (0) | Skin lesion, All [1]: 0 (0) | Skin lesion, Grade 1 2 [1]: 0 (0) | Skin lesion, Grade 3+ [1]: 0 (0) | Swelling face, All [1]: 0 (0) | Swelling face, Grade 1 2 [1]: 0 (0) | Swelling face, Grade 3+ [1]: 0 (0) | Hypertension, All (Group 1, Vascular disorders): 1 (6.7) | Hypertension, Grade 1 2 (Group 1, Vascular disorders): 0 (0) | Hypertension, Grade 3+ (Group 1, Vascular disorders): 1 (6.7) | Hypotension, All (Group 1, Vascular disorders): 3 (20) | Hypotension, Grade 1 2 (Group 1, Vascular disorders): 2 (13.3) | Hypotension, Grade 3+ (Group 1, Vascular disorders): 1 (6.7) | Lymphoedema, All (Group 1, Vascular disorders): 0 (0) | Lymphoedema, Grade 1 2 (Group 1, Vascular disorders): 0 (0) | Lymphoedema, Grade 3+ (Group 1, Vascular disorders): 0 (0) | Peripheral venous disease, All (Group 1, Vascular disorders): 0 (0) | Peripheral venous disease, Grade 1 2 (Group 1, Vascular disorders): 0 (0) | Peripheral venous disease, Grade 3+ (Group 1, Vascular disorders): 0 (0) | Atrial fibrillation with RVR, All (Group 2, Missing Categories): 1 (8.3) | Atrial fibrillation with RVR, Grade 1 2 (Group 2, Missing Categories): 1 (8.3) | Atrial fibrillation with RVR, Grade 3+ (Group 2, Missing Categories): 0 (0) | COPD exacerbation, All (Group 2, Missing Categories): 0 (0) | COPD exacerbation, Grade 1 2 (Group 2, Missing Categories): 0 (0) | COPD exacerbation, Grade 3+ (Group 2, Missing Categories): 0 (0) | Chest pain (non-cardiac), All (Group 2, Missing Categories): 1 (8.3) | Chest pain (non-cardiac), Grade 1 2 (Group 2, Missing Categories): 1 (8.3) | Chest pain (non-cardiac), Grade 3+ (Group 2, Missing Categories): 0 (0) | Death, NOS, All (Group 2, Missing Categories): 0 (0) | Death, NOS, Grade 1 2 (Group 2, Missing Categories): 0 (0) | Death, NOS, Grade 3+ (Group 2, Missing Categories): 0 (0) | Diarrhea (intermittent), All (Group 2, Missing Categories): 1 (8.3) | Diarrhea (intermittent), Grade 1 2 (Group 2, Missing Categories): 1 (8.3) | Diarrhea (intermittent), Grade 3+ (Group 2, Missing Categories): 0 (0) | Hand-Foot Syndrome, All (Group 2, Missing Categories): 0 (0) | Hand-Foot Syndrome, Grade 1 2 (Group 2, Missing Categories): 0 (0) | Hand-Foot Syndrome, Grade 3+ (Group 2, Missing Categories): 0 (0) | Hip Pain, All (Group 2, Missing Categories): 0 (0) | Hip Pain, Grade 1 2 (Group 2, Missing Categories): 0 (0) | Hip Pain, Grade 3+ (Group 2, Missing Categories): 0 (0) | Hypokalemia (intermittent), All (Group 2, Missing Categories): 1 (8.3) | Hypokalemia (intermittent), Grade 1 2 (Group 2, Missing Categories): 1 (8.3) | Hypokalemia (intermittent), Grade 3+ (Group 2, Missing Categories): 0 (0)
